# Test results: EPA's ToxRefDB 2
# Columns and labels:
# [1] = test system: dog; conditions: Sub-acute repeat dose toxicity; beagle; Oral; Gavage/Intubation; dose end: 4 day; group: systemic; systemic / clinical chemistry / [other] / [other] + systemic / clinical chemistry / apolipoprotein a1 / apolipoprotein a1 + systemic / …
# [2] = test system: primate; conditions: Subchronic oral toxicity in nonrodent, Gavage/Intubation, dose end: 91 day, group: systemic, systemic / in life observation / clinical signs / emesis
# [3] = test system: rat; conditions: Sub-acute repeat dose toxicity; Oral; Gavage/Intubation; dose end: 5 day; group: systemic; systemic / in life observation / clinical signs / arrhythmia + systemic / in life observation / clinical signs / dehydration + systemic / in…
# [4] = test system: primate; conditions: Sub-acute repeat dose toxicity, marmoset, Oral, Gavage/Intubation, dose end: 4 day, group: systemic
# [5] = test system: rabbit; conditions: Sub-acute repeat dose toxicity, Oral, Gavage/Intubation, dose end: 5 day, group: systemic
# [6] = test system: rat; conditions: Subchronic oral toxicity in rodents, wistar, Gavage/Intubation, dose end: 91 day, group: systemic
# [7] = test system: dog; conditions: Sub-acute repeat dose toxicity; beagle; Oral; Gavage/Intubation; dose end: 4 day; group: systemic; systemic / in life observation / clinical signs / erythema + systemic / in life observation / clinical signs / reduced activity + systemic…
# [8] = test system: dog; conditions: Chronic toxicity; beagle; Oral; Gavage/Intubation; dose end: 364 day; group: systemic; systemic / organ weight / liver / absolute + systemic / pathology microscopic / testes / cellular alteration + systemic / pathology …
# [9] = test system: rabbit; conditions: Prenatal developmental toxicity study, Oral, Gavage/Intubation, dose end: 19 GD
# [10] = test system: rat; conditions: Chronic toxicity, wistar, Oral, Feed, dose end: 182 day, group: systemic
# [11] = test system: dog; conditions: Sub-acute repeat dose toxicity, beagle, Oral, Gavage/Intubation, dose end: 14 day, group: systemic
# [12] = test system: dog; conditions: Chronic toxicity; beagle; Oral; Gavage/Intubation; dose end: 364 day; group: systemic; systemic / organ weight / liver / absolute + systemic / pathology microscopic / testes / cellular alteration + systemic / pathology …; remark: listed apart in the source
# [13] = test system: rat; conditions: Sub-acute repeat dose toxicity; wistar; Oral; Feed; dose end: 14 day; group: systemic; systemic / hematology / leukocyte (wbc) count differential / leukocyte (wbc) + systemic / hematology / lymphocyte / lymphocyte + systemic / …
# [14] = test system: rat; conditions: Fertility (Segment I), Oral, Gavage/Intubation, dose end: 1 generation, group: parental
# [15] = test system: rat; conditions: Fertility (Segment I); Oral; Gavage/Intubation; dose end: 1 generation; group: parental; systemic / in life observation / clinical signs / alopecia + systemic / in life observation / clinical signs / respiration (rales) + …
# [16] = test system: rat; conditions: Prenatal developmental toxicity study, Oral, Gavage/Intubation, dose end: 18 GD
# [17] = test system: rat; conditions: Sub-acute repeat dose toxicity, wistar, Oral, Gavage/Intubation, dose end: 14 day, group: systemic
# [18] = test system: rat; conditions: Chronic toxicity, Oral, Feed, dose end: 182 day, group: systemic
# [19] = systemic / in life observation / clinical signs / defecation (diarrhea) + systemic / pathology microscopic / salivary glands / degeneration…
# [20] = systemic / pathology microscopic / salivary glands / degeneration + systemic / hematology / fibrinogen / fibrinogen + systemic / pathology …
# [21] = systemic / in life observation / body weight / body weight + systemic / in life observation / clinical signs / abnormal respiratory sounds…
# [22] = systemic / in life observation / clinical signs / nasal discharge + systemic / in life observation / food consumption / food consumption
# [23] = systemic / in life observation / body weight / body weight + systemic / in life observation / clinical signs / abnormal feces + systemic / …
# [24] = systemic / pathology microscopic / intestine large / hyperplasia + systemic / pathology microscopic / stomach / hyperplasia
# [25] = group: developmental, systemic / in life observation / body weight / fetal weight
# [26] = group: maternal, systemic / in life observation / body weight / body weight
# [27] = systemic / pathology gross / full gross necropsy / rhabdomyosarcoma + systemic / clinical chemistry / albumin-globulin ratio / albumin-…
# [28] = systemic / pathology gross / uterus / cyst + systemic / pathology microscopic / uterus / cyst + systemic / organ weight / testes / absolute…
# [29] = systemic / clinical chemistry / [other] / [other] + systemic / clinical chemistry / alanine aminotransferase (alt/sgpt) / alanine …
# [30] = systemic / in life observation / body weight / body weight gain + systemic / in life observation / clinical signs / abnormal feces + …
# [31] = systemic / pathology microscopic / testes / dilatation
# [32] = group: developmental, developmental / developmental malformation / bone / [other] + developmental / developmental malformation / bone / delayed ossification + …
# [33] = group: maternal, systemic / in life observation / body weight / body weight + systemic / in life observation / body weight / body weight gain + systemic / in…
# [34] = systemic / clinical chemistry / cytochrome p450, nos / cytochrome p450, nos
# [35] = systemic / clinical chemistry / cytochrome p450, nos / cytochrome p450, nos + systemic / clinical chemistry / urea nitrogen / urea nitrogen…
# [36] = systemic / clinical chemistry / albumin-globulin ratio / albumin-globulin ratio + systemic / clinical chemistry / glucose / glucose + …
compound,measurement,setting,value
Nc1cc2c3c(c1)C(c1ccccc1)=N[C@@H](NC(=O)c1cccnc1)C(=O)N3CC2 [CI-1044],LEL,[1],20 mg/kg/day
same,LOAEL,[1],> 20 mg/kg/day
same,NEL,[1],< 20 mg/kg/day
same,NOAEL,[1],≥ 20 mg/kg/day
same,LEL,[2],1 mg/kg/day
same,LOAEL,[2],> 15 mg/kg/day
same,NEL,[2],< 1 mg/kg/day
same,NOAEL,[2],≥ 15 mg/kg/day
same,LOAEL,[3],> 50 mg/kg/day
same,NEL,[3],10 mg/kg/day
same,NOAEL,[3],≥ 50 mg/kg/day
same,LOAEL,[4]; [19],> 320 mg/kg/day
same,NOAEL,[4]; [19],≥ 320 mg/kg/day
same,LEL,[4]; [20],80 mg/kg/day
same,NEL,[4]; [20],< 80 mg/kg/day
same,LOAEL,[5]; [21],> 1000 mg/kg/day
same,NOAEL,[5]; [21],≥ 1000 mg/kg/day
same,LEL,[5]; [22],50 mg/kg/day
same,NEL,[5]; [22],< 50 mg/kg/day
same,LOAEL,[6]; [23],> 25 mg/kg/day
same,NOAEL,[6]; [23],≥ 25 mg/kg/day
same,LEL,[6]; [24],3 mg/kg/day
same,NEL,[6]; [24],< 3 mg/kg/day
same,LEL,[7],50 mg/kg/day
same,LOAEL,[7],> 50 mg/kg/day
same,NEL,[7],< 50 mg/kg/day
same,NOAEL,[7],≥ 50 mg/kg/day
CCc1cc(C2=C(C(=O)O)N(c3ccccc3C(F)(F)F)S(=O)(=O)c3ccccc32)cc2c1OCO2 [Fandosentan],LEL,[8],10 mg/kg/day
same,LOAEL,[8],> 100 mg/kg/day
same,NEL,[8],< 10 mg/kg/day
same,NOAEL,[8],≥ 100 mg/kg/day
same,LEL,[9]; [25],50 mg/kg/day
same,LOAEL,[9]; [25],> 50 mg/kg/day
same,NOAEL,[9]; [25],≥ 50 mg/kg/day
same,LEL,[9]; [26],50 mg/kg/day
same,LOAEL,[9]; [26],> 50 mg/kg/day
same,NEL,[9]; [26],25 mg/kg/day
same,NOAEL,[9]; [26],≥ 50 mg/kg/day
same,LOAEL,[10]; [27],> 300 mg/kg/day
same,NOAEL,[10]; [27],≥ 300 mg/kg/day
same,LEL,[10]; [28],75 mg/kg/day
same,NEL,[10]; [28],< 75 mg/kg/day
same,LOAEL,[11]; [29],> 200 mg/kg/day
same,NOAEL,[11]; [29],≥ 200 mg/kg/day
same,LEL,[11]; systemic / in life observation / clinical signs / defecation (diarrhea) + systemic / clinical chemistry / [other] / [other] + systemic / …,30 mg/kg/day
same,LEL,[12],10 mg/kg/day
same,LOAEL,[12],> 100 mg/kg/day
same,NEL,[12],< 10 mg/kg/day
same,NOAEL,[12],≥ 100 mg/kg/day
same,LEL,[13],100 mg/kg/day
same,LOAEL,[13],> 750 mg/kg/day
same,NEL,[13],< 100 mg/kg/day
same,NOAEL,[13],≥ 750 mg/kg/day
same,LOAEL,[14]; [30],> 250 mg/kg/day
same,NOAEL,[14]; [30],≥ 250 mg/kg/day
same,LEL,[14]; [31],25 mg/kg/day
same,NEL,[14]; [31],< 25 mg/kg/day
same,LEL,[15],25 mg/kg/day
same,LOAEL,[15],> 250 mg/kg/day
same,NEL,[15],< 25 mg/kg/day
same,NOAEL,[15],≥ 250 mg/kg/day
same,LOAEL,[16]; [32],> 250 mg/kg/day
same,NOAEL,[16]; [32],≥ 250 mg/kg/day
same,LEL,"[16]; group: developmental, developmental / developmental malformation / bone / [other] + developmental / developmental malformation / face / [other] + developmental / …",100 mg/kg/day
same,LEL,[16]; [33],250 mg/kg/day
same,LOAEL,[16]; [33],> 250 mg/kg/day
same,NOAEL,[16]; [33],≥ 250 mg/kg/day
same,LEL,[17]; [34],100 mg/kg/day
same,NEL,[17]; [34],< 100 mg/kg/day
same,LOAEL,[17]; [35],> 500 mg/kg/day
same,NOAEL,[17]; [35],≥ 500 mg/kg/day
same,LOAEL,[18]; [36],> 300 mg/kg/day
same,NOAEL,[18]; [36],≥ 300 mg/kg/day
same,LEL,[18]; [28],75 mg/kg/day
same,NEL,[18]; [28],< 75 mg/kg/day
